Laboratory results reported in patent US20250049787A1, “TREATMENT FOR ACUTE MYELOID LEUKEMIA OR LYMPHOMA” (UNIVERSITY HEALTH NETWORK, priority 2021, published 2025).

Test system: MV-4-11 xenografts
Assay: MV-4-11 xenograft model of human AML in CD-1 Nude mice
Assay type: in vivo
Conditions: 0.5 mg/kg IP, QW×4 vs vehicle; p=0.137
Method: Female 8- to 10-week-old CD-1 Nude mice (Charles River Laboratories) with established MV-4-11 xenografts were treated for 21 days (n=8). MV-4-11 cells is a human AML cell line which endogenously expresses a Fms Related Receptor Tyrosine Kinase 3 (FLT3) internal tandem duplication (ITD) mutation. Animal weights were monitored daily, and tumor volume was measured three times per week. Tumor volume (mm^3) was defined as follows, length×width^2/2. Percentage tumor growth inhibition (% TGI) was defined as follows, 100×[1−(TVf,treated−TVi,treated)/(TVf,control−TVi,control)], where TVf is the average tumor volume at the end of study, and TVi is the average tumor volume at the initiation of treatment. In cases where tumor regression occurred, percentage tumor regression was defined as follows, 100×[1−(TVf,treated/TVi,treated)]. At the completion of the study, the mice were sacrificed by an anesthetic overdose. The Institutional Animal Care and Use Committee of the University Health Network approved all animal procedures. […] Data are represented as mean±SEM. p values were calculated using Student's/test.

SMILES: CC[C@]1(O)C[C@H]2CN(CCc3c([nH]c4ccccc34)[C@@](C(=O)OC)(c3cc4c(cc3OC)N(C=O)[C@H]3[C@@](O)(C(=O)OC)[C@H](OC(C)=O)[C@]5(CC)C=CCN6CC[C@]43[C@@H]65)C2)C1 [Vincristine, reference compound]
- Day 10 TGI (tumor growth inhibition): 62%
